Assays:
zebrafish larvae = assay: In vivo maximum-tolerated concentration (MTC) study in zebrafish larvae; parameters: species or system zebrafish (Danio rerio); conditions: for Survival rate: 24-h treatment, fifteen larvae
Summary of the method: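 AB wild-type larvae, one per well in Danieau's medium (pH 7.1–7.3) at 28°C, exposed from 4 dpf for 24 h to 0, 0.01, 0.1, 1, 10, 50 or 100 μM with 1% DMSO.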

[1] = Authentic human urine sample after intake of 4F-MDMB-BINACA, LC-HRMS/MS; format: in vivo; conditions: one patient, unknown dose and time point of intake
Protocol: Human blood and urine collected after a suspected intake of drugs of abuse were submitted to the authors' laboratory for regular clinical toxicological analysis. The blood sample was centrifuged, and plasma was separated. The authors' standard liquid–liquid extraction for human plasma screening was used (Maurer et al., [2016]). Briefly, 1,000 μl of plasma was mixed with 100 μl of internal standard (0.01 μg/μl trimipramine-d3 in methanol) and extracted with 5,000 μl of a mixture of diethyl ether:ethyl acetate (1:1, v/v) after addition of 2,000 μl of saturated sodium sulfate solution. Phase separation was mediated by centrifugation. The organic layer was transferred into a flask and evaporated to dryness at 60°C under reduced pressure. The aqueous residue was then alkalized with 500 μl of 1 M sodium hydroxide and extracted a second time with 5,000 μl of the diethyl ether:ethyl acetate mixture. The organic extract was transferred to the same flask and evaporated as described before. The combined residues were dissolved in 100 μl of methanol and transferred into an autosampler vial, and 5 μl was injected onto the LC-HRMS/MS system. An aliquot of the human urine sample (100 μl) was prepared according to a previous study by precipitation with 500 μl of acetonitrile (Wissenbach et al., [2011]). The mixture was shaken and centrifuged (18,407 × g, 2 min). […]

COC(=O)C(NC(=O)c1nn(CCCCF)c2ccccc12)C(C)(C)C (stereo not drawn) [4F-MDMB-BINACA, methyl 2-[1-(4-fluorobutyl)-1H-indazole-3-carbonyl]amino-3,3-dimethylbutanoate]
Survival rate (zebrafish larvae; 0.01 μM, larvae 4 dpf): 100% | Survival rate (zebrafish larvae; 0.1 μM, larvae 4 dpf): 100% | Survival rate (zebrafish larvae; 1 μM, larvae 4 dpf): 100% | Survival rate (zebrafish larvae; 10 μM, larvae 4 dpf): 100% | Survival rate (zebrafish larvae; 50 μM, larvae 4 dpf): 73% | Survival rate (zebrafish larvae; 100 μM, larvae 4 dpf): 53% | Concentration considered non-toxic for zebrafish larvae (4 dpf) (zebrafish larvae; 24 h exposure via medium): 25 µM | Malformations (zebrafish larvae; up to 100 μM, larvae 4 dpf, 24 h): No malformations | Detectability of the parent compound in urine [1]: barely detectable

Source: publication PMC7380166, “How to Study the Metabolism of New Psychoactive Substances for the Purpose of Toxicological Screenings—A Follow-Up Study Comparing Pooled Human Liver S9, HepaRG Cells, and Zebrafish Larvae” (Frontiers in Chemistry, 2020)
